Laboratory results from ChEMBL document CHEMBL3593198 (Bioorg Med Chem, 2015).
pIC50: −log10 of the molar value. Active and inactive are the calls of the source. No cut-off for these calls is given here.

How the values were obtained:
HeLa [1] = assay: Selectivity index, ratio of IC50 for human WI-26 VA4 cells to IC50 for human HeLa cells; format: functional
[2] = target: T1, Sodium/potassium-transporting ATPase (Homo sapiens) (UniProt P05023+P14415+P05026+P50993+P54709+P13637+Q13733+P54710); assay: Inhibition of Na(+)/K(+) ATPase in human HeLa cells at 10 uM after 24 hrs by immunoblotting; format: cell-based
[3] = Cytotoxicity against human RKO-AS45-1 cells after 48 hrs by MTT assay; format: functional, cell-based; settings: RKOAS451, 48 h
HeLa [4] = assay: Cytotoxicity against human HeLa cells after 48 hrs by MTT assay; format: functional, cell-based
[5] = target: Sodium/potassium-transporting ATPase subunit alpha-2/alpha-3 (Rattus norvegicus, UniProt P06686+P06687); assay: Inhibition of Wistar rat brain Na(+)/K(+) ATPase alpha-2/3 assessed as amount of Pi release after 1 hr by colorimetric method
[6] = Selectivity index, ratio of IC50 for human WI-26 VA4 cells to IC50 for human RKO-AS45-1 cells; format: functional
[7] = target: T2, Sodium/potassium-transporting ATPase subunit alpha-1 (Homo sapiens, UniProt P05023); assay: Inhibition of human kidney Na(+)/K(+) ATPase alpha-1 assessed as amount of Pi release after 1 hr by colorimetric method
[8] = Cytotoxicity against human WI-26 VA4 cells after 48 hrs by MTT assay; format: cell-based; settings: WI26VA4, 48 h
[9] = target: T2, Sodium/potassium-transporting ATPase subunit alpha-1; assay: Inhibition of human kidney Na(+)/K(+) ATPase alpha-1 assessed as amount of Pi release at 10 uM after 1 hr by colorimetric method
[10] = target: Sodium/potassium-transporting ATPase subunit alpha-2/alpha-3 (Rattus norvegicus) (UniProt P06686+P06687); assay: Inhibition of Wistar rat brain Na(+)/K(+) ATPase alpha-2/3 assessed as amount of Pi release at 10 uM after 1 hr by colorimetric method
HeLa [11] = assay: Inhibition of Na(+)/K(+) ATPase alpha-1 expression in human HeLa cells at 150 nM after 24 hrs by immunoblotting; format: functional, cell-based
[12] = target: T1, Sodium/potassium-transporting ATPase (Homo sapiens); settings: HeLa, 150 nM
Description: Inhibition of Na(+)/K(+) ATPase in human HeLa cells at 150 nM after 24 hrs by immunoblotting

HeLa [13] = assay: Inhibition of Na(+)/K(+) ATPase alpha-1 expression in human HeLa cells at 10 uM after 24 hrs by immunoblotting; format: functional, cell-based

Structure (SMILES) | Ratio IC50 (HeLa [1]) | inhibition [2] | pIC50 [3] | pIC50 (HeLa [4]) | pIC50 [5] | Ratio IC50 [6] | pIC50 [7] | pIC50 [8] | inhibition [9] | inhibition [10] | inhibition (HeLa [11]) | inhibition [12] | inhibition (HeLa [13])
C[C@H]1O[C@@H](O[C@H]2[C@@H](O)C[C@H](O[C@H]3[C@@H](O)C[C@H](O[C@H]4CC[C@@]5(C)[C@H](CC[C@@H]6[C@@H]5C[C@@H](O)[C@]5(C)[C@@H](C7=CC(=O)O/C7=C\c7ccc(F)cc7)CC[C@]65O)C4)O[C@@H]3C)O[C@@H]2C)C[C@H](O)[C@@H]1O | 0.89 | inactive | 4.38 | 4.22 | 6.18 | 1.31 | 6.47 | 4.27 | – | – | – | – | –
C[C@H]1O[C@@H](O[C@H]2[C@@H](O)C[C@H](O[C@H]3[C@@H](O)C[C@H](O[C@H]4CC[C@@]5(C)[C@H](CC[C@@H]6[C@@H]5C[C@@H](O)[C@]5(C)[C@@H](C7=CC(=O)O/C7=C\c7cccc(Cl)c7Cl)CC[C@]65O)C4)O[C@@H]3C)O[C@@H]2C)C[C@H](O)[C@@H]1O | 0.36 | inactive | 4.72 | 4.37 | 4.74 | 0.81 | – | 4.81 | – | – | – | – | –
COc1ccc(/C=C2\OC(=O)C=C2[C@H]2CC[C@]3(O)[C@@H]4CC[C@@H]5C[C@@H](O[C@H]6C[C@H](O)[C@H](O[C@H]7C[C@H](O)[C@H](O[C@H]8C[C@H](O)[C@H](O)[C@@H](C)O8)[C@@H](C)O7)[C@@H](C)O6)CC[C@]5(C)[C@H]4C[C@@H](O)[C@]23C)cc1 | 1.27 | inactive | 4.10 | 4.21 | 6.34 | 0.99 | 6.24 | 4.11 | – | – | – | – | –
C[C@H]1O[C@@H](O[C@H]2[C@@H](O)C[C@H](O[C@H]3[C@@H](O)C[C@H](O[C@H]4CC[C@@]5(C)[C@H](CC[C@@H]6[C@@H]5C[C@@H](O)[C@]5(C)[C@@H](C7=CC(=O)O/C7=C\c7ccc(Cl)cc7)CC[C@]65O)C4)O[C@@H]3C)O[C@@H]2C)C[C@H](O)[C@@H]1O | 0.72 | inactive | 4.62 | 4.40 | – | 1.21 | – | 4.54 | inactive | inactive | – | – | –
C[C@H]1O[C@@H](O[C@H]2[C@@H](O)C[C@H](O[C@H]3[C@@H](O)C[C@H](O[C@H]4CC[C@@]5(C)[C@H](CC[C@@H]6[C@@H]5C[C@@H](O)[C@]5(C)[C@@H](C7=CC(=O)OC7)CC[C@]65O)C4)O[C@@H]3C)O[C@@H]2C)C[C@H](O)[C@@H]1O [DIGOXIN] | – | – | 6.38 | – | – | – | – | – | – | – | inactive | Active | –
C[C@H]1O[C@@H](O[C@H]2[C@@H](O)C[C@H](O[C@H]3[C@@H](O)C[C@H](O[C@H]4CC[C@@]5(C)[C@H](CC[C@@H]6[C@@H]5C[C@@H](O)[C@]5(C)[C@@H](C7=CC(=O)O/C7=C\c7ccc(N(C)C)cc7)CC[C@]65O)C4)O[C@@H]3C)O[C@@H]2C)C[C@H](O)[C@@H]1O | 2.5 | Active | 6.32 | 6.59 | 4.70 | 1.35 | 5.01 | 6.19 | – | – | inactive | Active | inactive
C[C@H]1O[C@@H](O[C@H]2[C@@H](O)C[C@H](O[C@H]3[C@@H](O)C[C@H](O[C@H]4CC[C@@]5(C)[C@H](CC[C@@H]6[C@@H]5C[C@@H](O)[C@]5(C)[C@@H](C7=CC(=O)O/C7=C\c7cccc([N+](=O)[O-])c7)CC[C@]65O)C4)O[C@@H]3C)O[C@@H]2C)C[C@H](O)[C@@H]1O | 0.68 | inactive | 4.38 | 4.19 | 5.40 | 1.07 | 4.96 | 4.36 | – | – | – | – | –
